Reference: US7390923B2, “Propionamide derivatives useful as androgen receptor modulators” (Orion Corporation, priority 2003, dated 2008)

Legend:
AR = target: T1, AR (Rattus norvegicus, UniProt P15207); experiment: AR agonism and antagonism in immature male rats, 3-day assay, relative organ weights
T1 sequence (P15207 1-902): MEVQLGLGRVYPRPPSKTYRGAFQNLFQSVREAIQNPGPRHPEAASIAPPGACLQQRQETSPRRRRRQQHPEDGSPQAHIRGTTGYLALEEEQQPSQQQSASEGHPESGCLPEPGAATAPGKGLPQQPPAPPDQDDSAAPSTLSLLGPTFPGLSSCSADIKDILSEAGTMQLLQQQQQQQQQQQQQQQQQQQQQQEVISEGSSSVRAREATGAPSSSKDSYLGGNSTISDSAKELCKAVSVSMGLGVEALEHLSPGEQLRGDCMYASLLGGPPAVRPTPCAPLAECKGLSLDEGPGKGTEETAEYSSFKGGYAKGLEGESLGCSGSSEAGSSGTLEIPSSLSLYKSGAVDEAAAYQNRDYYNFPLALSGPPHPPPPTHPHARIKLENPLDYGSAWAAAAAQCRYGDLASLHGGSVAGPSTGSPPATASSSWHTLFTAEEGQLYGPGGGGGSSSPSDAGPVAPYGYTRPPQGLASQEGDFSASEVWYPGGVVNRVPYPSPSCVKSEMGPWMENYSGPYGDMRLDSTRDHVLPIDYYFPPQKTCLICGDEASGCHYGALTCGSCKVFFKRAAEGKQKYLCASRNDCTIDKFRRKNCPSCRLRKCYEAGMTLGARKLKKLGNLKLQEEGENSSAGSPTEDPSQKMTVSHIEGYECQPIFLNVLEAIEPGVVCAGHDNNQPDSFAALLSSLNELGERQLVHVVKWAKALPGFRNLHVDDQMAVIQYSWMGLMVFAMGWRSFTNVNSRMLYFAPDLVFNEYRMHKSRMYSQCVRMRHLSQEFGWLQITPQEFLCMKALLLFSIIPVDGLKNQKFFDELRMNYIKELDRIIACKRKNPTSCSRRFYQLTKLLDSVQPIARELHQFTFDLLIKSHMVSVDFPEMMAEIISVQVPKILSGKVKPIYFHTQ
Method: The title compound of Example 3, abbreviated here as compound A, was further studied in in vivo experiment. The agonism and antagonism of the compound with subcutaneous dosing was tested in immature male Spraque Dawley rat 3-day assay by analyzing the relative weights of ventral prostate, seminal vesicle, and levator ani-muscle. Testosterone propionate was used as a reference compound.
Testosterone propionate (abbreviated here TP) and compound A were first dissolved into DMSO and then into the vehicle sesame oil. Sprague-Dawley untreated male rats (18-19 days old) weighing about 50 g were used in the experiment. Rats were weighed and randomly distributed into five groups, with 5 animals per group (Table 1). Compound A (doses 2 and 20 mg/kg) and testosterone propionate (dose 5 mg/kg) were given subcutaneously (s.c.) into the neck/back of the animals at a constant volume of 100 microl dosing solution/animal/day. The animals were dosed once daily for three days, and clinical signs were recorded during dosing. At the end of the study, animals were weighed and anaesthetised by CO2 asphyxiation. Ventral prostate, seminal vesicles, and levator ani-muscle were dissected out, chilled, and weighed. For statistical analysis, the weights of all organs were normalized to body weights, and analyzed for statistical significant difference by single-factor ANOVA.
In the Figure, “a” means agonism, p<0.01 compared to vehicle group, “b” means antagonism, p<0.05 compared to testosterone group, bars represent mean±SEM.

androgen receptor (AR) = target: T2, androgen receptor (AR) (Rattus norvegicus, UniProt P15207); experiment: AR binding assay, competition with [3H]-mibolerone binding in rat ventral prostate cytosol; details: 1 nM [3H]-mibolerone, overnight at 0° C.
T2 construct: Ventral prostates were obtained form rats castrated 24 h prior to sacrifice; from tissue; host or cells: rat ventral prostate cytosol (castrated rats, charcoal-treated)
T2 sequence (P15207 1-902): T1 sequence (P15207 1-902)
Method: Ventral prostates were obtained form rats castrated 24 h prior to sacrifice. Fresh prostate was minced and washed with Buffer A (Schilling and Liao, Prostate, 5:581-588, 1984). The minces were then homogenized in 3× volume of Buffer A containing protease inhibitors (Complete, Mini, EDTA-free Roche). The homogenate was centrifuged at 30000 g for 30 min. The resultant supernatants were treated with 1×volume of dextran-coated charcoal solution (12.5 g activated charcoal, 12.5 g dextran per liter of buffer A) to remove endogenous steroids. The samples were incubated for 5 min and centrifuged at 16000 g for 10 min. Aliquots of the charcoal-treated cytosol were taken for androgen receptor assays. All procedures were carried out at 0-4° C.
Cytosol androgen receptor concentration was determined as described (Isomaa et al., Endocrinology, 111: 833-843, 1982) with minor modifications. Cytosol preparations were prepared as described above, and bound and free steroids were separated by treatment with an equal volume of dextran-charcoal suspension for 5 min at 4° C. followed by centrifugation at 16000 g for 10 min. Bound radioactivity was determined by counting supernatant fractions in 1 ml of OptiPhase HiSafe3 or OptiPhase Supermix (PerkinElmer).
Cytosol preparations were labelled with 1 nM [^3H]-mibolerone overnight at 0° C. (total). To determine AR binding activity of the compounds of the present invention (test compounds), the ability of test compounds to compete with [^3H]7α,17α-dimethyl-17β-hydroxy-4-estren-3-one ([^3H]-mibolerone) binding was studied. 1 nM [^3H]-mibolerone and test compounds in two concentrations (0.2 and 2 uM) were incubated overnight at 0° C. To determine non-specific binding, parallel incubations were carried out using 1 nM concentration [^3H]-mibolerone with 500-fold molar excess of unlabelled testosterone. Two to four replicates were used for each sample. After incubation, bound and free steroids were separated as described above and bound radioactivity was determined. The ability of the test compounds to bind AR is reported as reduction in bound radioactivity obtained with 1 nM [^3H]-mibolerone. The results (% inhibition) were calculated as: % inhibition=100−(100×(averagetest compound/averagetotal)).

[1] = 5 mg/kg s.c. once daily for three days, immature male rat
[2] = 20 mg/kg s.c. once daily for three days, immature male rat

## CCC(=O)O[C@H]1CC[C@H]2[C@@H]3CCC4=CC(=O)CC[C@]4(C)[C@H]3CC[C@]12C [testosterone propionate, Testosterone propionate, reference compound]
AR; [1]
  relative weight of levator ani-muscle: increased significantly
  relative weight of seminal vesicle: increased significantly
  relative weight of ventral prostate: increased significantly
AR; rat, in vivo, sc
  effect on the body weights: Neither testosterone propionate nor compound A had any effect

## CC(=O)Nc1ccc(OC[C@](C)(O)C(=O)Nc2ccc([N+](=O)[O-])c(C)c2)cc1 [Example 3, (2S)-3-(4-Acetylaminophenoxy)-2-hydroxy-2-methyl-N-(3-methyl-4-nitrophenyl)propionamide]
AR; [2]
  relative weight of levator ani-muscle: clearly increased
  relative weight of the prostate: only minimally
AR; TP 5 mg/kg + compound A 20 mg/kg s.c., p<0.05 compared to testosterone group
  antagonistic activity in seminal vesicle: significant antagonistic activity
AR; s.c. 2 and 20 mg/kg, immature male rat, FIG. 1
  androgenic and anabolic activity: shows androgenic and anabolic activity
AR; s.c. once daily for three days, immature male rat, data not shown
  effect on the body weights: Neither testosterone propionate nor compound A had any effect
AR; s.c., immature male rat
  tissue selectivity compared with testosterone propionate: showed tissue selectivity
Androgen receptor (AR); test compound 0.2 μM
  inhibition at 0.2 µM: 103%
Androgen receptor (AR); test compound 2.0 μM
  inhibition at 2 µM: 115%
